According to ChEMBL document CHEMBL2163265, “Antifungal peptides at membrane interaction” (Eur J Med Chem, 2012):
Active and inactive are the calls of the source. The calls are words filed in the database; no cut-off is given here. Where a SMILES comes first, the peptide text is derived from it.

Key:
Candida albicans [1] = test: Binding affinity to Candida albicans ATCC 90028 membrane at 2 mg/ml incubated for 15 mins on ice followed by 45 mins in room temperature by fluorescence microscopic analysis; type: functional
Candida albicans [2] = test: Binding affinity to Candida albicans MYA-2876 membrane at 2 mg/ml incubated for 15 mins on ice followed by 45 mins in room temperature by fluorescence microscopic analysis; type: functional

## N=C(N)NCCC[C@@H]1NC(=O)[C@H](CCCNC(=N)N)NC(=O)[C@H](Cc2c[nH]c3ccccc23)NC(=O)[C@H](Cc2c[nH]c3ccccc23)NC(=O)[C@H](CCCNC(=N)N)NC(=O)[C@H](Cc2ccccc2)NC(=O)[C@H](Cc2c[nH]cn2)NC1=O (cyclo(FRWWRRH))
Candida albicans [1]
  Activity: Active
Candida albicans [2]
  Activity: Active
